Laboratory results: patent US20240409553A1, “HETEROCYCLIC NLRP3 INHIBITORS” (Hoffmann-La Roche Inc., priority 2021, published 2024)
Structures can show the parent of a compound that is named as a salt.

Assays:
[1] = target: T1, NLRP3 (Homo sapiens, UniProt Q96P20); test: THP-1 cells pyroptosis assay (LPS priming, nigericin, resazurin readout); assay type: cell-based; design: Seed THP-1 cells (25,000 cells/well) containing 1.0 μg/ml LPS; host or cells: THP-1 cells, LPS-primed, nigericin-stimulated; settings: 1 μg/ml LPS, 3 h compound, 5 μM nigericin 1 hr
Method: THP-1 cells (ATCC #TIB-202) were grown in RPMI containing L-glutamine (Gibco #11835) supplemented with 1 mM sodium pyruvate (Sigma #S8636) and penicillin (100 units/ml)/streptomycin (0.1 mg/ml) (Sigma #P4333) in 10% Fetal Bovine Serum (FBS) (Sigma #F0804). The cells were routinely passaged and grown to confluency (˜10^6 cells/ml). On the day of the experiment, THP-1 cells were harvested and resuspended into RPMI medium (without FBS). The cells were then counted and viability (>90%) checked by Trypan blue (Sigma #T8154). Appropriate dilutions were made to give a concentration of 625,000 cells/ml. To this diluted cell solution was added LPS (Sigma #L4524) to give a 1 μg/ml Final Assay Concentration (FAC). 40 μl of the final preparation was aliquoted into each well of a 96-well plate. The plate thus prepared was used for compound screening.
The following method step-by-step assay was followed for compound screening. • 1. Seed THP-1 cells (25,000 cells/well) containing 1.0 μg/ml LPS in 40 μl of RPMI medium (without FBS) in 96-well, black walled, clear bottom cell culture plates coated with poly-D-lysine (VWR #734-0317) • 2. Add 5 μl compound (8 points half-log dilution, with 10 μM top dose) or vehicle (DMSO 0.1% FAC) to the appropriate wells • 3. Incubate for 3 hours at 37° C., 5% CO2 • 4. Add 5 μl nigericin (Sigma #N7143) (FAC 5 μM) to all wells • 5. Incubate for 1 hr at 37° C., 5% CO2 • 6. At the end of the incubation period, spin plates at 300×g for 3 mins and remove supernatant • 7. Then add 50 μl of resazurin (Sigma #R7017) (FAC 100 μM resazurin in RPMI medium without FBS) and incubate plates for a further 1-2 hours at 37° C. and 5% CO2 • 8. Plates were read in an Envision reader at Ex 560 nm and Em 590 nm • 9. IC50 data is fitted to a non-linear regression equation (log inhibitor vs response-variable slope 4-parameters)

[2] = target: T1, NLRP3; test: Human whole blood IL-1β release assay (LPS, nigericin, AlphaLisa); assay type: cell-based; design: Plate out 80 μl of whole blood containing 1 μg/ml of LPS; from tissue; host or cells: human whole blood from healthy donors, LPS-primed, nigericin-stimulated; settings: 1 μg/ml LPS, 3 h compound, 10 μM nigericin 1 hr, IL-1β in supernatant, read-out: Human whole blood IB-1β Assay IC50
Method: For systemic delivery, the ability to inhibit NLRP3 when the compounds are present within the bloodstream is of great importance. For this reason, the NLRP3 inhibitory activity of a number of compounds in human whole blood was investigated in accordance with the following protocol.
Human whole blood in Li-heparin tubes was obtained from healthy donors from a volunteer donor panel. • 1. Plate out 80 μl of whole blood containing 1 μg/ml of LPS in 96-well, clear bottom cell culture plate (Corning #3585) • 2. Add 10 μl compound (8 points half-log dilution with 10 μM top dose) or vehicle (DMSO 0.10% FAC) to the appropriate wells • 3. Incubate for 3 hours at 37° C., 5% CO2 • 4. Add 10 μl nigericin (Sigma #N7143) (10 μM FAC) to all wells • 5. Incubate for 1 hr at 37° C., 5% CO2 • 6. At the end of the incubation period, spin plates at 300×g for 5 mins to pellet cells and remove 20 μl of supernatant and add to 96-well v-bottom plates for IL-1β analysis (note: these plates containing the supernatants can be stored at −80° C. to be analysed at a later date) • 7. IL-1β was measured according to the manufacturer protocol (Perkin Elmer-AlphaLisa IL-1 Kit AL220F-5000) • 8. IC50 data is fitted to a non-linear regression equation (log inhibitor vs response-variable slope 4-parameters)

T1 sequence (Q96P20 whole entry): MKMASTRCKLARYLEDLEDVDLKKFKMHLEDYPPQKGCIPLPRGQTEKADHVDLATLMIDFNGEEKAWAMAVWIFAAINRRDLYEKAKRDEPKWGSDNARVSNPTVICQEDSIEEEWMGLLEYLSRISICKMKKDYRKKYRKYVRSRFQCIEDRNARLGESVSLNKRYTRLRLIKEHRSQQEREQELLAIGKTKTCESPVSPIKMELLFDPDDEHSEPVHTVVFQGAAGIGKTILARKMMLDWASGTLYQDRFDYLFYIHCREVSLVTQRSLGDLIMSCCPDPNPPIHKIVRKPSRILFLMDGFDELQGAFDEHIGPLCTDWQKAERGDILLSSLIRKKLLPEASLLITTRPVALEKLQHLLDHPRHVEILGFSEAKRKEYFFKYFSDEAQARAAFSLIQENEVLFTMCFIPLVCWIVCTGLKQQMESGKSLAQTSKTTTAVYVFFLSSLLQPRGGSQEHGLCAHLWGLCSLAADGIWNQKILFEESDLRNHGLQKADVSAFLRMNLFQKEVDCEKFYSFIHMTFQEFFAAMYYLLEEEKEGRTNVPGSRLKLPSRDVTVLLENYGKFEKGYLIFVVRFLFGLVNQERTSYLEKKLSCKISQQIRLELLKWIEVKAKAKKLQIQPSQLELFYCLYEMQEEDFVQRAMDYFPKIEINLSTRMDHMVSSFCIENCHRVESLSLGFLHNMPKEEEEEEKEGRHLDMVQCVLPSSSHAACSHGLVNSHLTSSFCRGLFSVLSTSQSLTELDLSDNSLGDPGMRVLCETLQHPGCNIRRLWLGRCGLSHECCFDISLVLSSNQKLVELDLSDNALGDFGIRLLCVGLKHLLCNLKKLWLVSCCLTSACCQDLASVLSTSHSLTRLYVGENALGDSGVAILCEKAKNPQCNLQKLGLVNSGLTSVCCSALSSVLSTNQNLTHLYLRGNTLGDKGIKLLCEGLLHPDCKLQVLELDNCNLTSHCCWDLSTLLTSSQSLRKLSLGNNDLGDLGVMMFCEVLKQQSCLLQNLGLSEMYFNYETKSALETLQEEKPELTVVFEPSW

Row | SMILES | IC50 [1] | IC50 [2]
1 | CCN1CCCC(Nc2nnc(-c3ccc(C(F)(F)F)cc3O)c3ccsc23)C1 (racemic) [Example 1, (rac)-2-[7-[(1-Ethyl-3-piperidyl)amino]thieno[2,3-d]pyridazin-4-yl]-5(trifluoromethyl)phenol; formic acid] | 1.6 nM | 0.088 nM
2 | CCN1CCCC(Nc2nnc(-c3ccc(C(F)(F)F)cc3O)c3sccc23)C1 (racemic) [Example 2, (rac)-2-[4-[(1-Ethyl-3-piperidyl)amino]thieno[2,3-d]pyridazin-7-yl]-5 (trifluoromethyl)phenol; formic acid] | 3.5 nM | 0.349 nM
3 | CCN1CCCC(Nc2nnc(-c3ccc(C(F)(F)F)cc3)c3ccsc23)C1 (racemic) [Example 3, (rac)-N-(1-ethyl-3-piperidyl)-4-[4-(trifluoromethyl)phenyl]thieno[2,3-d]pyridazin-7-amine] | 57.2 nM | 0.091 nM
4 | CCN1CCCC(Nc2nnc(-c3ccc(C(F)(F)F)cc3)c3sccc23)C1 (racemic) [Example 4, (rac)-N-(1-ethyl-3-piperidyl)-7-[4-(trifluoromethyl)phenyl]thieno[2,3-d]pyridazin-4-amine] | 52.4 nM | 0.328 nM
5 | CCN1CCC[C@@H](Nc2nnc(-c3ccc(C(F)(F)F)cc3O)c3c2ccn3C)C1 [Example 5-HCl, 2-[4-[[(3R)-1-Ethyl-3-piperidyl]amino]-1-methyl-pyrrolo[2,3-d]pyridazin-7-yl]-5-(trifluoromethyl)phenol; hydrochloride] | 11.6 nM | –
6 | CCN1CCC[C@@H](Nc2nnc(-c3ccc(C(F)(F)F)cc3O)c3c2ccn3C)C1 [Example 5-TFA, 2-[4-[[(3R)-1-ethyl-3-piperidyl]amino]-1-methyl-pyrrolo[2,3-d]pyridazin-7-yl]-5-(trifluoromethyl)phenol; 2,2,2-trifluoroacetic acid] | 12.4 nM | 0.028 nM
7 | CCN1CCC[C@@H](Nc2nnc(-c3ccc(C(F)(F)F)cc3O)c3c2cnn3C)C1 [Example 6, 2-[4-[[(3R)-1-Ethyl-3-piperidyl]amino]-1-methyl-pyrazolo[3,4-d]pyridazin-7-yl]-5-(trifluoromethyl)phenol; 2,2,2-trifluoroacetic acid] | 3.5 nM | 0.028 nM
8 | CCN1CCC[C@@H](Nc2nnc(-c3ccc(C(F)(F)F)cc3O)c3occc23)C1 [Example 7, 2-[4-[[(3R)-1-ethyl-3-piperidyl]amino]furo[2,3-d]pyridazin-7-yl]-5-(trifluoromethyl)phenol] | 9.1 nM | 0.592 nM
9 | CCN1CCC[C@@H](Nc2nnc(-c3ccc(C(F)(F)F)cc3O)c3cnn(C)c23)C1 [Example 9, 2-[7-[[(3R)-1-Ethyl-3-piperidyl]amino]-1-methyl-pyrazolo[3,4-d]pyridazin-4-yl]-5-(trifluoromethyl)phenol] | 2.7 nM | 0.217 nM
10 | CCN1CCC[C@@H](Nc2nnc(-c3ccc(OC(F)(F)F)cc3O)c3c2cnn3C)C1 [Example 10, 2-[4-[[(3R)-1-Ethyl-3-piperidyl]amino]-1-methyl-pyrazolo[3,4-d]pyridazin-7-yl]-5-(trifluoromethoxy)phenol; 2,2,2-trifluoroacetic acid] | 2.3 nM | 0.024 nM
11 | Cn1ncc2c(N[C@@H]3CCCC[C@H]3O)nnc(-c3ccc(C(F)(F)F)cc3O)c21 [Example 11, 2-[4-[[(1R,2R)-2-Hydroxycyclohexyl]amino]-1-methyl-pyrazolo[3,4-d]pyridazin-7-yl]-5-(trifluoromethyl)phenol; 2,2,2-trifluoroacetic acid] | 76 nM | –
12 | CCN1CCC[C@@H](Nc2nnc(-c3ccc(Cl)cc3O)c3c2cnn3C)C1 [Example 12, 5-Chloro-2-[1-methyl-4-[[(3R)-1-ethyl-3-piperidyl]amino]pyrazolo[3,4-d]pyridazin-7-yl]phenol; 2,2,2-trifluoroacetic acid] | 2.2 nM | 0.014 nM
13 | CCN1CCC[C@@H](Nc2nnc(-c3ccc(C(F)(F)F)cc3O)c3onc(C)c23)C1 [Example 13, 2-[4-[[(3R)-1-Ethyl-3-piperidyl]amino]-3-methyl-isoxazolo[4,5-d]pyridazin-7-yl]-5-(trifluoromethyl)phenol] | 18 nM | 2.6 nM
14 | CCN1CCC[C@@H](Nc2nnc(-c3c(C)cc(C(F)(F)F)cc3O)c3[nH]ncc23)C1 [Example 14, 2-[4-[[(3R)-1-ethyl-3-piperidyl]amino]-1H-pyrazolo[3,4-d]pyridazin-7-yl]-3-methyl-5-(trifluoromethyl)phenol; 2,2,2-trifluoroacetic acid] | 7.8 nM | 0.111 nM
15 | CCN1CCC[C@@H](Nc2nnc(-c3c(O)cc(C(F)(F)F)cc3F)c3c2cnn3C)C1 [Example 15, 2-[4-[[(3R)-1-Ethyl-3-piperidyl]amino]-1-methyl-pyrazolo[3,4-d]pyridazin-7-yl]-3-fluoro-5-(trifluoromethyl)phenol] | 8.6 nM | 0.232 nM
16 | Cn1ncc2c(N[C@H]3C[C@@](C)(O)C3)nnc(-c3ccc(C(F)(F)F)cc3O)c21 [Example 16, 2-[4-[(3-Hydroxy-3-methyl-cyclobutyl)amino]-1-methyl-pyrazolo[3,4-d]pyridazin-7-yl]-5-(trifluoromethyl)phenol] | 362 nM | –
17 | CCN1CCC[C@@H](Nc2nnc(-c3ccc4c(c3O)CCO4)c3c2cnn3C)C1 [Example 17, 5-[4-[[(3R)-1-Ethyl-3-piperidyl]amino]-1-methyl-pyrazolo[3,4-d]pyridazin-7-yl]-2,3-dihydrobenzofuran-4-ol] | 3.6 nM | 0.015 nM
18 | CCN1CCC[C@@H](Nc2nnc(-c3ccc4c(c3O)CC4)c3c2cnn3C)C1 [Example 18, 3-[4-[[(3R)-1-Ethyl-3-piperidyl]amino]-1-methyl-pyrazolo[3,4-d]pyridazin-7-yl]bicyclo[4.2.0]octa-1(6),2,4-trien-2-ol] | 2.2 nM | 0.033 nM
19 | CCN1C[C@@H](O)C[C@@H](Nc2nnc(-c3ccc4c(c3O)CCO4)c3c2cnn3C)C1 [Example 19, (3S,5R)-1-Ethyl-5-[[7-(4-hydroxy-2,3-dihydrobenzofuran-5-yl)-1-methyl-pyrazolo[3,4-d]pyridazin-4-yl]amino]piperidin-3-ol] | 46.6 nM | 0.3 nM
